12 compounds from PubChem BioAssay AID330 (DTP/NCI, 2004) can be followed below.

SMILES strings stand for the structures. Where “and” joins values, the source holds several entries; their conditions need not be identical. Equal entries are not always repeated. Inconclusive results and toxic doses are left out.

The assay has as its system P388 leukemia ip, CD2F1 mice, survival T/C. Kind of assay: NCI In Vivo Anticancer Drug Screen. Data for tumor model P388 Leukemia (intraperitoneal) in CD2F1 (CDF1) mice. To be noted: endpoint: median survival time, higher = longer survival. The essentials: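 Mice carrying the transplanted tumor received test compound or vehicle. Survival was recorded in each group, and the value is the treated-group measurement divided by that of the vehicle-treated control group.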

Where [1] appears, read: dose: 100.0 mg/kg/injection, schedule: Q04DX003 (ip), vehicle: saline with Tween-80.
The mark [2] stands for this setting: dose: 200.0 mg/kg/injection, schedule: Q04DX003 (ip), vehicle: saline with Tween-80.
Where [3] appears, read: dose: 400.0 mg/kg/injection, schedule: Q04DX003 (ip), vehicle: saline with Tween-80.

`COc1ccc2cc1Oc1ccc(cc1)C[C@@H]1c3cc(c(OC)cc3CCN1C)Oc1c(OC)c(OC)cc3c1[C@H](C2)N(C)CC3`: the T/C (dose: 25.0 mg/kg/injection, schedule: Q04DX002 (ip), vehicle: suspension in saline) is 99 % of control; the T/C (dose: 50.0 mg/kg/injection, schedule: Q04DX002 (ip), vehicle: suspension in saline) is 100 % of control; the T/C (dose: 100.0 mg/kg/injection, schedule: Q04DX002 (ip), vehicle: suspension in saline) was 100 % of control; the T/C (dose: 200.0 mg/kg/injection, schedule: Q04DX002 (ip), vehicle: suspension in saline) was 93 % of control.
As for `OC(Cc1cnc2ccccc2n1)(C(F)(F)F)C(F)(F)F`, the T/C is, setting by setting: under setting [1], 109 % of control; under setting [2], 95 % of control; under setting [3], 90 % of control.
Consider `CC1C=CC(C)S(=O)N1C(=O)Cc1ccccc1` (stereo unspecified), for which the T/C reads like this: (dose: 60.0 mg/kg/injection, schedule: Q01DX005 (ip), vehicle: Klucel (hydroxypropylcellulose) (HPC)) 100 % of control; (dose: 120.0 mg/kg/injection, schedule: Q01DX005 (ip), vehicle: Klucel (hydroxypropylcellulose) (HPC)) 106 % of control; (dose: 240.0 mg/kg/injection, schedule: Q01DX005 (ip), vehicle: Klucel (hydroxypropylcellulose) (HPC)) 113 % of control.
Consider `COC(=O)C1CSC(c2c(CO)cnc(C)c2O)N1` (stereo unspecified), for which the T/C is 105 % of control (dose: 100.0 mg/kg/injection, schedule: Q04DX002 (ip), vehicle: saline + Tween-80 + alcohol); 96 % of control (dose: 200.0 mg/kg/injection, schedule: Q04DX002 (ip), vehicle: saline + Tween-80 + alcohol); 107 % of control (dose: 400.0 mg/kg/injection, schedule: Q04DX002 (ip), vehicle: saline + Tween-80 + alcohol).
For the compound `CCN(CC)CCN1C(=O)c2cccc3cc(N)cc(c23)C1=O`, the T/C reads like this: (dose: 1.56 mg/kg/injection, schedule: Q01DX009 (ip), vehicle: saline with Tween-80) 101 % of control; (dose: 1.6 mg/kg/injection, schedule: Q01DX009 (ip), vehicle: saline with Tween-80) 100 % of control; (dose: 3.12 mg/kg/injection, schedule: Q01DX009 (ip), vehicle: saline with Tween-80) 98 % of control; (dose: 3.2 mg/kg/injection, schedule: Q01DX009 (ip), vehicle: saline with Tween-80) 108 % of control; (dose: 6.25 mg/kg/injection, schedule: Q01DX009 (ip), vehicle: saline with Tween-80) 98 % of control; (dose: 6.5 mg/kg/injection, schedule: Q01DX009 (ip), vehicle: saline with Tween-80) 107 % of control and 123 % of control. Further, the T/C reads like this: (dose: 12.5 mg/kg/injection, schedule: Q01DX009 (ip), vehicle: saline with Tween-80) 107 % of control; (dose: 13.1 mg/kg/injection, schedule: Q01DX009 (ip), vehicle: saline with Tween-80) 121 % of control and 123 % of control; (dose: 25.0 mg/kg/injection, schedule: Q01DX009 (ip), vehicle: saline with Tween-80) 114 % of control; (dose: 26.0 mg/kg/injection, schedule: Q01DX009 (ip), vehicle: saline with Tween-80) 124 % of control; (dose: 50.0 mg/kg/injection, schedule: Q01DX009 (ip), vehicle: saline with Tween-80) 160 % of control.
In the case of `COC(=O)C1(c2ccccc2)OP2(N(C)C)(OCCN2C)OC1(C(=O)OC)c1ccccc1` (stereo unspecified), the T/C was 104 % of control (dose: 50.0 mg/kg/injection, schedule: Q01DX005 (ip), vehicle: saline with Tween-80); 98 % of control (dose: 100.0 mg/kg/injection, schedule: Q01DX005 (ip), vehicle: saline with Tween-80); 91 % of control (dose: 200.0 mg/kg/injection, schedule: Q01DX005 (ip), vehicle: saline with Tween-80).
As to `O=C(CC(=O)c1ccc(Cl)cc1)c1ccc(Cl)cc1`, the T/C is, setting by setting: (dose: 50.0 mg/kg/injection, schedule: Q04DX003 (ip), vehicle: saline with Tween-80) 100 % of control; under setting [1], 100 % of control; under setting [2], 98 % of control; under setting [3], 93 % of control.
For the compound `COC(=O)/C(C#N)=C/c1ccc2c(c1)OCO2`, the T/C runs as follows: (dose: 50.0 mg/kg/injection, schedule: Q01DX005 (ip), vehicle: Klucel (hydroxypropylcellulose) (HPC)) 100 % of control; (dose: 100.0 mg/kg/injection, schedule: Q01DX005 (ip), vehicle: Klucel (hydroxypropylcellulose) (HPC)) 97 % of control; (dose: 200.0 mg/kg/injection, schedule: Q01DX005 (ip), vehicle: Klucel (hydroxypropylcellulose) (HPC)) 100 % of control.
Turning to `C/C(=N\N)c1cnc(NN)nc1C`, the T/C is, setting by setting: (dose: 7.5 mg/kg/injection, schedule: Q01DX005 (ip), vehicle: saline) 106 % of control; (dose: 15.0 mg/kg/injection, schedule: Q01DX005 (ip), vehicle: saline) 103 % of control.
In the case of `COC(=O)C1CC(NO)CN1S(=O)(=O)c1ccc(C)cc1` (stereo unspecified), the T/C is, setting by setting: (dose: 100.0 mg/kg/injection, schedule: Q04DX002 (ip), vehicle: saline with Tween-80) 99 % of control; (dose: 200.0 mg/kg/injection, schedule: Q04DX002 (ip), vehicle: saline with Tween-80) 95 % of control; (dose: 400.0 mg/kg/injection, schedule: Q04DX002 (ip), vehicle: saline with Tween-80) 93 % of control.
Turning to `COc1ccc2c(c1)[nH]c1c(C)c3ccncc3c(C)c12`, the T/C is, setting by setting: (dose: 18.75 mg/kg/injection, schedule: Q04DX002 (ip), vehicle: Klucel (hydroxypropylcellulose) (HPC)) 95 % of control; (dose: 37.5 mg/kg/injection, schedule: Q04DX002 (ip), vehicle: Klucel (hydroxypropylcellulose) (HPC)) 92 % of control; (dose: 75.0 mg/kg/injection, schedule: Q04DX002 (ip), vehicle: Klucel (hydroxypropylcellulose) (HPC)) 90 % of control; (dose: 150.0 mg/kg/injection, schedule: Q04DX002 (ip), vehicle: Klucel (hydroxypropylcellulose) (HPC)) 100 % of control.
For `CCCCCCC(O)/C=C/c1ccc(N(C)C)cc1` (stereo unspecified), the T/C reads like this: (dose: 50.0 mg/kg/injection, schedule: Q01DX009 (ip), vehicle: Klucel (hydroxypropylcellulose) (HPC)) 103 % of control; (dose: 100.0 mg/kg/injection, schedule: Q01DX009 (ip), vehicle: Klucel (hydroxypropylcellulose) (HPC)) 99 % of control; (dose: 200.0 mg/kg/injection, schedule: Q01DX009 (ip), vehicle: Klucel (hydroxypropylcellulose) (HPC)) 102 % of control.
